Test results reported in US20260274855A1, “AMORPHOUS FORM OF ISOQUINOLINE DERIVATIVE” (vTv Therapeutics LLC, priority 2020, published 2026).
Structures can show the parent of a compound that is named as a salt. Where two headings read alike, the source gives them in different places.

Assays:
Type in all cases: physicochemical
[1] = Solubility in aqueous solutions at various pH's
[2] = Stability study at 40° C. and 100% RH for 7 days
Protocol: The stability of crystal form B of OAD2 hydrochloride and the amorphous form of OAD2 dihydrochloride was tested under conditions of 40° C./100% RH for 1 week.

[3] = 30-day stability study at 60° C.
Protocol: A 30-day stability study at 60° C. was conducted on a sample of material obtained from the method of Example 3.

[4] = Hygroscopicity study, DVS test (25° C., 80% RH)
Protocol: Dynamic moisture adsorption (DVS) curves were collected on DVS Intrinsic of Surface Measurement Systems (SMS). The relative humidity at 25° C. was corrected with the deliquescent points of LiCl, Mg(NO3)2 and KCl.

[5] = 3 month stability study at 25° C. ± 2° C. and 60% RH
Protocol: A 3-month stability study was conducted at 25° C.±2° C. and 60% relative humidity.

[6] = Dissolution studies, four-part dissolution test method of Chinese Pharmacopoeia (2015 edition)
Protocol: Dissolution studies were conducted according to the four-part dissolution test method in the Chinese Pharmacopoeia (2015 edition) in the following solvents: methanol, acetic acid, ethanol, 0.1 mol/L HCl, acetonitrile, and 2-methyltetrahydrofuran. The dissolution study method involves weighing a fine powder (after grinding) of solid test product, attempting to dissolve in a proper volume of solvent by strongly shaking for 30 seconds every 5 minutes for 30 minutes, and recording observations after 30 minutes.

[7] = Month 0, listed as Ex. 3, dihydrochloride salt
[8] = Month 0, listed as Ex. 4, dihydrochloride salt
[9] = Month 0, listed as Ex. 5, dihydrochloride salt
[10] = Month 1, listed as Ex. 3, dihydrochloride salt
[11] = Month 1, listed as Ex. 4, dihydrochloride salt
[12] = Month 1, listed as Ex. 5, dihydrochloride salt
[13] = Month 2, listed as Ex. 3, dihydrochloride salt
[14] = Month 2, listed as Ex. 4, dihydrochloride salt
[15] = Month 2, listed as Ex. 5, dihydrochloride salt
[16] = Month 3, listed as Ex. 3, dihydrochloride salt
[17] = Month 3, listed as Ex. 4, dihydrochloride salt
[18] = Month 3, listed as Ex. 5, dihydrochloride salt

## CC[C@@H](c1ccccc1)N1Cc2cc3c(cc2C[C@H]1C(=O)N[C@@H](Cc1ccc(-c2ccnc(C)c2C)cc1)C(=O)O)OC[C@H](c1ccc(OCc2ccc(Cl)c(Cl)c2)cc1)O3 [OAD2 dihydrochloride, (S)-2-(3S,8S)-3-(4-(3,4-dichlorobenzyloxy)phenyl-7-((S)-1-phenylpropyl)-2,3,6,7,8,9-hexahydro-[1,4]-dioxino[2,3-g]isoquinolin-8-ylformylamino)-3-(4-(2,3-dimethylpyridin-4-yl)phenyl)propionic acid dihydrochloride salt]
[1]; Buffer pH 5
  solubility: Not detectable
[1]; aqueous solution, aqueous buffer, thermodynamic from solid, Buffer pH 7, read-out: Solubility
  solubility: 90 µg/mL
[1]; aqueous solution, aqueous buffer, thermodynamic from solid, Buffer pH 9, read-out: Solubility
  solubility: 50 µg/mL
[1]; aqueous solution, aqueous buffer, thermodynamic from solid, solvent 0.1 NaOH, read-out: Solubility
  solubility: 17 µg/mL
[1]; aqueous solution, simulated gastric fluid, thermodynamic from solid, solvent 0.1 HCl, read-out: Solubility
  solubility: > 51000 µg/mL
[1]; solvent 0.1 HCl, listed as OAD2 dihydrochloride salt, dihydrochloride salt
  solubility: >51000 µg/mL
[2]; 40° C./100% RH for 1 week
  Decrease in purity: no distinct decrease in purity
[2]; 40° C./100% RH/7 d
  HPLC (area %): 97.51 area %
[2]; Initiation
  HPLC (area %): 98.91 area %
[3]; Day 0
  Appearance: Off-white
  Moisture Content: 1.6%
  Percentage of external standard content: 97.1%
  Purity: 99.03%
  Solid form: Amorphous
[3]; Day 5
  Appearance: Off-white
  Moisture Content: 2.7%
  Percentage of external standard content: 99.1%
  Purity: 98.7%
  Solid form: Amorphous
[3]; Day 10
  Appearance: Off-white
  Moisture Content: 2.4%
  Percentage of external standard content: 97.5%
  Purity: 98.7%
  Solid form: Amorphous
[3]; Day 30
  Appearance: Pale-yellow
  Moisture Content: 2.5%
  Percentage of external standard content: 97.4%
  Purity: 97.7%
  Solid form: Amorphous
[4]
  Moisture adsorption rate: 8.3%
[5]; Month 0
  Appearance: Off-white
  Solid form: Amorphous
[5]; [7]
  Moisture Content: 1.7%
  Percentage of external standard content: 98.1%
  Purity: 99.30%
[5]; [8]
  Moisture Content: 2.5%
  Percentage of external standard content: 97.1%
  Purity: 98.7%
[5]; [9]
  Moisture Content: 1.6%
  Percentage of external standard content: 97.1%
  Purity: 99.03%
[5]; Month 1
  Appearance: Off-white
  Solid form: Amorphous
[5]; [10]
  Moisture Content: 3.1%
  Percentage of external standard content: 99.0%
  Purity: 99.25%
[5]; [11]
  Moisture Content: 4.7%
  Percentage of external standard content: 96.8%
  Purity: 98.6%
[5]; [12]
  Moisture Content: 3.3%
  Percentage of external standard content: 97.2%
  Purity: 98.90%
[5]; Month 2
  Appearance: Off-white
  Solid form: Amorphous
[5]; [13]
  Moisture Content: 3.4%
  Percentage of external standard content: 98.7%
  Purity: 99.30%
[5]; [14]
  Moisture Content: 3.6%
  Percentage of external standard content: 97.6%
  Purity: 98.6%
[5]; [15]
  Moisture Content: 4.1%
  Percentage of external standard content: 97.8%
  Purity: 98.90%
[5]; Month 3
  Appearance: Off-white
  Solid form: Amorphous
[5]; [16]
  Moisture Content: 3.7%
  Percentage of external standard content: 99.8%
  Purity: 99.23%
[5]; [17]
  Moisture Content: 4.8%
  Percentage of external standard content: 98.2%
  Purity: 98.5%
[5]; [18]
  Moisture Content: 4.5%
  Percentage of external standard content: 98.7%
  Purity: 98.90%
[6]; 0.1 mol/L HCl, about 1 g sample in 9.99 mL, after 30 minutes, listed as 3, dihydrochloride salt
  Dissolution: Incomplete
[6]; 0.1 mol/L HCl, about 1 g sample in 9.99 mL, after 30 minutes, listed as 4, dihydrochloride salt
  Dissolution: Incomplete
[6]; 0.1 mol/L HCl, about 1 g sample in 9.99 mL, after 30 minutes, listed as 5, dihydrochloride salt
  Dissolution: Incomplete
[6]; 0.1 mol/L HCl, about 1 g sample in 9.99 mL, after 30 minutes, listed as amorphous solid of OAD2 dihydrochloride salt, dihydrochloride salt
  Dissolution: completely dissolved
[6]; 0.1 mol/L HCl, about 1 g sample in 29.99 mL, after 30 minutes
  Dissolution: Complete
[6]; 2-methyl tetrahydrofuran, about 0.01 g sample in 101 mL, after 30 minutes, listed as 3, dihydrochloride salt
  Dissolution: Incomplete
[6]; 2-methyl tetrahydrofuran, about 0.01 g sample in 101 mL, after 30 minutes, listed as 4, dihydrochloride salt
  Dissolution: Incomplete
[6]; 2-methyl tetrahydrofuran, about 0.01 g sample in 101 mL, after 30 minutes, listed as 5, dihydrochloride salt
  Dissolution: Incomplete
[6]; 2-methyl tetrahydrofuran, about 0.01 g sample in 101 mL, after 30 minutes, listed as amorphous solid of OAD2 dihydrochloride salt, dihydrochloride salt
  Dissolution: incompletely dissolved
[6]; Acetonitrile, about 0.01 g sample in 101 mL, after 30 minutes, listed as 3, dihydrochloride salt
  Dissolution: Incomplete
[6]; Acetonitrile, about 0.01 g sample in 101 mL, after 30 minutes, listed as 4, dihydrochloride salt
  Dissolution: Incomplete
[6]; Acetonitrile, about 0.01 g sample in 101 mL, after 30 minutes, listed as 5, dihydrochloride salt
  Dissolution: Incomplete
[6]; Acetonitrile, about 0.01 g sample in 101 mL, after 30 minutes, listed as amorphous solid of OAD2 dihydrochloride salt, dihydrochloride salt
  Dissolution: incompletely dissolved
[6]; Ethanol, about 1 g sample in 9.99 mL, after 30 minutes, listed as 3, dihydrochloride salt
  Dissolution: Incomplete
[6]; Ethanol, about 1 g sample in 9.99 mL, after 30 minutes, listed as 4, dihydrochloride salt
  Dissolution: Incomplete
[6]; Ethanol, about 1 g sample in 9.99 mL, after 30 minutes, listed as 5, dihydrochloride salt
  Dissolution: Incomplete
[6]; Ethanol, about 1 g sample in 9.99 mL, after 30 minutes, listed as amorphous solid of OAD2 dihydrochloride salt, dihydrochloride salt
  Dissolution: completely dissolved
[6]; Ethanol, about 1 g sample in 29.99 mL, after 30 minutes
  Dissolution: Complete
[6]; Methanol, about 1 g sample in 9.99 mL, after 30 minutes, listed as 3, dihydrochloride salt
  Dissolution: Complete
[6]; Methanol, about 1 g sample in 9.99 mL, after 30 minutes, listed as 4, dihydrochloride salt
  Dissolution: Complete
[6]; Methanol, about 1 g sample in 9.99 mL, after 30 minutes, listed as 5, dihydrochloride salt
  Dissolution: Complete
[6]; Methanol, about 1 g sample in 9.99 mL, after 30 minutes, listed as amorphous solid of OAD2 dihydrochloride salt, dihydrochloride salt
  Dissolution: completely dissolved
[6]; acetic acid, about 10 mL of solvent
  Dissolution: completely dissolved
